From patent publication US20040039059A1, “Use of n,n' -dibenzyl ethylene diamine-n, n'- diacetic acid derivatives as anti-pollution agent” (priority 2000, published 2004)

Tested on: human keratinocytes
Experiment: Neutral red incorporation test: cytotoxicity of cadmium chloride on human keratinocytes in culture, with or without protecting agent
Assay type: cell-based
Conditions: for protection of cells against the toxicity of cadmium chloride (in words): protecting agent at 50 and 100 μM
Experimental: The cytotoxic effect of cadmium on human keratinocytes in culture was evaluated by means of a technique of measuring the cell viability, known as the neutral red incorporation test (E. Borenfreund and J. A. Puerner, Tissue Culture Methods. 1984, 9: 7-9).
The study was performed on a monolayer culture of human keratinocytes obtained from plastic surgeries. The cells are inoculated on D-3 into 96-well culture dishes at a rate of 25 000 cells/cm^2 in 100 μl of culture medium (calf serum-free defined medium, NR2, Biofluids). The incubations are performed in an incubator at 37° C. under a humid atmosphere enriched with 5% CO2.
The cells are treated for 24 hours with increasing concentrations (0, 10, 25, 50, 75, 100, 150 and 200 μM) of cadmium chloride (CdCl2) alone, so as to determine its cytotoxicity. In parallel, a treatment is performed under the same conditions, but in the presence of N,N′-bis(3,4,5-trimethoxybenzyl)ethylenediamine-N,N′-diacetic acid (100 and 50 μm). The incubations are performed in an incubator at 37° C., [lacuna] % CO2 under a humid atmosphere.
At the end of the period of contact, a neutral red incorporation test is performed and the results are read on a spectrophotometer at 550 nm.
To do this, the cells are rinsed with PBS buffer in order to remove the treatment solutions; 100 μl per well of a 0.5 mg/ml neutral red solution are added to the culture medium; the mixture is incubated at 37° C. and 5% CO2, under a humid atmosphere, for three hours; the resulting mixture is rinsed with PBS; fixing is performed with formaldehyde/calcium solution for one minute; the neutral red is extracted with 100 μl/well of ethanol-acetic acid solution; the optical density is read on the spectrophotometer at 550 nm and the CdCl2 concentration, resulting in a 50% reduction in viability=IC-50, is calculated.

Structure (SMILES) | protection of cells against the toxicity of cadmium chloride (in words) (human keratinocytes) | protection of cells against the toxicity of cadmium chloride (in words) (human keratinocytes, listed as N,N′-dimethylethylenediamine-N,N′-diacetic acid) | factor by which the cytotoxicity of cadmium chloride decreases (protecting agent at 50 μM) | factor by which the cytotoxicity of cadmium chloride decreases (protecting agent at 100 μM) | IC50 (CdCl2 alone, 24 hours, human keratinocytes, neutral red, concentration giving 50% drop in cell viability, read-out: IC.50 of cadmium chloride without protecting agent (Mean ± SEM)) [µM]
COc1cc(CN(CCN(CC(=O)O)Cc2cc(OC)c(OC)c(OC)c2)CC(=O)O)cc(OC)c1OC [N,N′-bis(3,4,5-trimethoxybenzyl)ethylenediamine-N,N′-diacetic acid] | significantly protects the cells against the toxicity of this pollutant | cytotoxicity of cadmium chloride decreases significantly | 2.3 | 3.1 | –
[Cl][Cd][Cl] [cadmium chloride, reference compound] | – | – | – | – | 39
